Data published in paper PMC8657459, “Rosmarinic Acid and Sodium Citrate Have a Synergistic Bacteriostatic Effect against Vibrio Species by Inhibiting Iron Uptake” (International Journal of Molecular Sciences, 2021).

Target: T1, VmFbpA (ferric ion-binding protein A) (Vibrio metschnikovii, UniProt A0A9X0R8I3)
T1 construct: gene H8Q88_11990; WP_004394209.1 without the signal peptide '[…]'; 6× His-tag-free apo VmFbpA
Test: ITC of RA into apo VmFbpA (single-site model); supported by UV-vis peak shift and Fe3+ pull-down inhibition by ICP-MS (IC50 […])

T1 sequence (A0A9X0R8I3 entry or part of it): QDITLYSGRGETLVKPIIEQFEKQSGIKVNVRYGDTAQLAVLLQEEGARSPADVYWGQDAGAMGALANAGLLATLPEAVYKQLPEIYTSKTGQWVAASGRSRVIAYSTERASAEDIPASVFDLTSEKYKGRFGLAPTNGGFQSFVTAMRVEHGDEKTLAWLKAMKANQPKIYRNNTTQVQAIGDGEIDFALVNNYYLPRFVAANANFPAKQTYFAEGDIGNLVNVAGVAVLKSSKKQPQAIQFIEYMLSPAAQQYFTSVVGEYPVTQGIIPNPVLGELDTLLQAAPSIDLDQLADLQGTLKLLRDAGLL

SMILES: O=C(/C=C/c1ccc(O)c(O)c1)O[C@H](Cc1ccc(O)c(O)c1)C(=O)O [RA, rosmarinic acid]
- Kd: 8 ± 1 µM
